Measurements as given in patent US9243034B2, “Glycogen synthase kinase-3 inhibitors” (Ramot at Tel-Aviv University Ltd., priority 2011, dated 2016).
Where a SMILES comes first, the peptide text is derived from it. [ ]: non-standard residue; d: D form. The star is where a group is joined. Myristoyl = CCCCCCCCCCCCCC(=O)*; pS = N[C@@H](COP(=O)(O)O)C(=O)O

B1: F93A: GSK-3β mutant, F93 replaced by alanine, SEQ ID NO:9 (protein)
chain: MSGRPRTTSFAESCKPVQQPSAFGSMKVSRDKDGSKVTTVVATPGQGPDRPQEVSYTDTKVIGNGSFGVVYQAKLCDSGELVAIKKVLQDKRAKNRELQIMRKLDHCNIVRLRYFFYSSGEKKDEVYLNLVLDYVPETVYRVARHYSRAKQTLPVIYVKLYMYQLFRSLAYIHSFGICHRDIKPQNLLLDPDTAVLKLCDFGSAKQLVRGEPNVSYICSRYYRAPELIFGATDYTSSIDVWSAGCVLAELLLGQPIFPGDSGVDQLVEIIKVLGTPTREQIREMNPNYTEFKFPQIKAHPWTKDSSGTGHFTSGVRVFRPRTPPEAIALCSRLLEYTPTARLTPLEACAHSFFDELRDPNVKLPNGRDTPALFNFTTQELSSNPPLATILIPPHARIQAAASTPTNATAASDANTGDRGQTNNAASASASNST
modifications: GSK-3 beta, F93A mutant

Legend:
[1] = system: β-catenin; assay: Hippocampus β-catenin levels in mice after nasal administration; type: in vivo, C57BL/6J mice; details: 60 μg peptide/mouse/day, 3 days, vs non-treated
Method: C57BL/6J mice (12 week old; obtained from Animal Facilities at Tel Aviv University) were treated with L803-mts or L806-mts via a nasal administration (60 μg peptide/per mouse/per day) for 3 days. Non-treated animals served as control. Brains were removed and hippocampus was homogenized in ice-cold ‘buffer G’(20 mM Tris pH 7.5, 10 mM β-glycerophosphate, 10% glycerol, 1 mM EGTA, 1 mM EDTA, 50 mM NaF, 5 mM sodium pyrophosphate, 0.5 mM orthovanadate, 1 mM benzamidine, 5 μg/ml leupeptin, 25 μg/ml aprotinin, 5 μg/ml pepstatin, and 0.5% Triton X100). Equal amounts of proteins (50 μg) were subjected to gel electrophoresis, transferred to nitrocellulose membranes, and immunoblotted with anti-β-catenin antibody. Hippocampus β-catenin levels were determined by western blot analysis as described.

[2] = system: heat shock factor-1 (HSF-1); assay: Phosphorylation of HSF-1 in COS-7 cells, Western blot; type: cell-based; details: FIG. 6C
Method: L806-mts-treated COS-7 cells were also tested for phosphorylation of the GSK-3 substrate heat shock factor-1 (HSF-1).

[3] = molecular target: T1, GSK-3β (Homo sapiens, UniProt P49841); assay: In vitro kinase assay with GSK-3β in the presence of peptide inhibitor; type: biochemical
T1 construct: made in house; host or cells: HEK-293 (transient transfection, pCMV4 vector; DE-52 partial purification)
T1 sequence (P49841 1-433 isoform P49841-2): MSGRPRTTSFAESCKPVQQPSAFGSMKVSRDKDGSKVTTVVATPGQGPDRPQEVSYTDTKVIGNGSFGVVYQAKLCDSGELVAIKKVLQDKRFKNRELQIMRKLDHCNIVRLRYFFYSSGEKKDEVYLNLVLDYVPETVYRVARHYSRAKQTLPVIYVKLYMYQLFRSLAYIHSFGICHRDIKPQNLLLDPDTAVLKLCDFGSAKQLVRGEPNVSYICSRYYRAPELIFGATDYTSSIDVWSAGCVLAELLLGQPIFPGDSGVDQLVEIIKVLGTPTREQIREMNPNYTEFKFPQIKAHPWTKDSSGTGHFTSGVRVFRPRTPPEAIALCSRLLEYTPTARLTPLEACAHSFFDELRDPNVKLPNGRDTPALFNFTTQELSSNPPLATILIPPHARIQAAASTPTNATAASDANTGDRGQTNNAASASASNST
Method: (§1) (0.5 μCi/assay) for 15 minutes.
The ability of each peptide to inhibit GSK-3β was then determined by in vitro kinase assays as described hereinabove.

[4] = system: β-catenin; assay: β-catenin levels in COS-7 cells, Western blot; type: cell-based; details: various concentrations, 5 hour, FIG. 6B
Method: In further studies, COS-7 cells were treated with L806-mts at various concentrations for 5 hour.

[5] = system: p9CREB; assay: In vitro kinase assay of GSK-3β mutants, substrate p9CREB; type: biochemical; details: WT set to 100%; mean of 2-3 experiments ± SEM
Method: (§2) HEK-293 cells were grown in Dulbecco's Modified Eagle's Medium (DMEM), supplemented with 10% fetal calf serum (FCS), 2 mM glutamine, 100 units/ml penicillin, and 100 μg/ml streptomycin. HEK-293 cells were transiently transfected with indicated constructs, using calcium phosphate method as described [Ilouz et al. (2006) supra]. Cells were lysed in ice-cold buffer G (20 mM Tris-HCl, pH 7.5, 10 mM β-glycerophosphate, 10% glycerol, 1 mM EGTA, 1 mM EDTA, 50 mM NaF, 5 mM sodium pyrophosphate, 0.5 mM orthovanadate, 1 mM benzamidine, 10 μg/ml leupeptin, 5 μg/ml aprotinin, 1 μg/ml pepstatin, and 0.5% Triton X100). Cell extracts were centrifuged for 30 minutes at 15,000×g. Supernatants were collected, and equal amounts of proteins were boiled with SDS sample buffer and subjected to gel electrophoresis (7.5-12% polyacrylamide gel), transferred to nitrocellulose membranes, and immunoblotted with indicated antibodies. For partial purification, cells were lysed in buffer H (20 mM Tris, pH 7.3, 1 mM EGTA, 1 mM EDTA, 1 mM orthovanadate, 25 μg/ml leupeptin, 25 μg/ml aprotinin, and 25 μg/ml pepstatin A, 500 nM microcystine LR, and 0.25% Triton X100). The lysates were centrifuged at 15,000×g. The resulting supernatants were passed through DE-52 (Whatman, Maidstone, England) mini-columns that were equilibrated with buffer H. GSK-3β proteins were eluted with the same buffer containing 0.02 M NaCl. Equal amounts of proteins were used for in vitro kinase assays. In all experiments, GSK-3 mutants were expressed at levels at least 5-fold higher than levels of the endogenous GSK-3β as determined by western blot analysis.
as §1
(§3) The GSK-3β mutants were partially purified by ion exchange chromatography, and their abilities to phosphorylate peptide substrates were tested in in vitro kinase assays. The substrates were: pIRS-1, p9CREB, and pGS-1, phosphorylated peptides derived from the insulin receptor substrate-1 (IRS-1), cAMP responsive element binding protein (CREB), and glycogen synthase, respectively.
(§4) The results are presented in Table 1, as the percentage of substrate phosphorylation (indicated peptides, pIRS-1, p9CREB and pGS-1) obtained with WTGSK-3β which was set to 100%, and are mean of 2-3 independent experiments each performed in duplicates±SEM.

[6] = system: pGS-1; assay: In vitro kinase assay of GSK-3β mutants, substrate pGS-1; type: biochemical; details: WT set to 100%; mean of 2-3 experiments ± SEM
Method: as §2, §1, §3, §4

[7] = system: CREB (Ser 129) and N′IRS-1 (Ser 332); assay: Phosphorylation of CREB and N'IRS-1 in HEK-293 cells expressing GSK-3β proteins; type: cell-based; details: forskolin or PMA treated, compared with WT-GSK-3β
Method: The role of Phe 93 in substrate binding by employing a cellular system and protein substrates (i.e., not peptides) was further explored. To this end, the WT-GSK-3β and F93A mutant were expressed in HEK-293 cells together with GSK-3 substrates CREB or N′IRS-1 (the N-terminal region of IRS-1). Because GSK-3 requires pre-phosphorylation of its substrates, the cells were treated with forskolin to enhance CREB phosphorylation via activation of cAMP dependent kinase (PKA), or with phorbol ester (PMA) to enhance N′IRS-1 phosphorylation via activation of protein kinase C (PKC). The phosphorylation of CREB at serine 129, and N′IRS-1 at serine 332 (both GSK-3 phosphorylation sites) was then examined.
Thus, HEK293 cells were co-transfected with WT-GSK-3β or F93A plasmids together with construct coding for CREB. Cells were treated with forskolin (10 μM, 1 hour), and cell extracts were subjected to western blot analysis using anti-phospho CREB (Ser 129/133) antibody, as presented in FIG. 1D. Expression levels of CREB and GSK-3 proteins are indicated.
Similar assay was conducted using N′IRS-1 cDNA construct instead of CREB, and cells were treated with PMA (100 nM, 30 minutes). Expression levels of N′IRS-1 and GSK-3β are indicated. Results are means of three independent experiments±SEM.

[8] = system: pIRS-1; assay: In vitro kinase assay of GSK-3β mutants, substrate pIRS-1; type: biochemical; details: WT set to 100%; mean of 2-3 experiments ± SEM
Method: as §2, §1, §3, §4

Molecule | Hippocampus β-catenin levels [1] | Phosphorylation of HSF-1 [2] | IC50 [3] | Levels of β-catenin [4] | Substrate phosphorylation (% of WTGSK-3β), p9CREB [5] | Substrate phosphorylation (% of WTGSK-3β), pGS-1 [6] | Phosphorylation of CREB and N′IRS-1 in cells [7] | Substrate phosphorylation (% of WTGSK-3β), pIRS-1 [8]
CCCCCCCCCCCCCC(=O)NCC(=O)N[C@@H](CCCCN)C(=O)N[C@@H](CCC(=O)O)C(=O)N[C@@H](C)C(=O)N1CCC[C@H]1C(=O)N1CCC[C@H]1C(=O)N[C@@H](C)C(=O)N1CCC[C@H]1C(=O)N1CCC[C@H]1C(=O)N1CCC[C@H]1C(=O)N[C@@H](COP(=O)(O)O)C(=O)N1CCC[C@H]1C(=O)O [L806-mts] (Myristoyl-GKEAPPAPPP[pS]P-OH; C-terminus assumed) | elevation in β-catenin levels | Reduced phosphorylation | ~1000 nM | Elevation of β-catenin | – | – | – | –
B1 | – | – | – | – | 46 ± 2 % of WTGSK-3β | 13 ± 7 % of WTGSK-3β | did not enhance the phosphorylation | 42 ± 13 % of WTGSK-3β
